Like-named read-outs stand apart in the source and are kept apart here.
Key:
[1] = tested on: PC-3 (prostate); assay: Cell viability at 1 mM (CellTiter-GLO), PC-3; type: cell-based; conditions: Homo sapiens, 48 h, read-out: Percent Cell Viability of Treated Cell Lines at 1.0 mM, PC-3
Description: (§1) Cell lines PC-3, HT29, Hela, and MDA-MB-231 were cultured in RPMI1640 with 10% FBS media. Cell line MDA-MB-231-LM24 was cultured in DMEM with 400 ug/mL geneticin.
(§2) PC-3, HT29, Hela, and MDA-MB-231, and MDA-MB-231-LM24 cells were plated in […] at a density of 20,000 cells per well (based on NCI recommendation for adherent cells) in 90 μL volume of 5% FBS RPMI1640 complete media with 50 μg/mL gentamicin and incubated at 37° C. overnight. Each compound was diluted in RPMI1640 complete media supplemented with 5% FBS and 50 μg/mL of gentamycin, and 10 μL of this solution was added to each well to give a final concentration of 1 mM (1% overall DMSO, N=4 wells).
(§3) Cells treated with Doxorubicin with 1% overall DMSO were used as a positive control, and cells media containing 1% DMSO were used as a negative control.
(§4) 48 hours following treatment, cell proliferation was evaluated using the CellTiter-GLO Luminescent Cell Viability Assay (Promega, Madison, Wis.). Plates were allowed to equilibrate to room temperature for 20 minutes, and 100 μL of CellTiter-GLO reagent was added to all wells. The plates were shaken for 2 minutes and incubated at room temperature for 10 minutes. Luminescence was measured using a Syngergy H1-M microplate reader (BioTek Instruments, Inc.).

[2] = tested on: HT29 (colon); assay: Cell viability at 1 mM (CellTiter-GLO), HT29; type: cell-based; conditions: Homo sapiens, read-out: Percent Cell Viability of Treated Cell Lines at 1.0 mM, HT29
Description: as §1, §2, §3, §4

[3] = tested on: HeLa (cervix); assay: Cell viability at 1 mM (CellTiter-GLO), HeLa; type: cell-based; conditions: Homo sapiens, 48 h, read-out: Percent Cell Viability of Treated Cell Lines at 1.0 mM, HeLa
Description: as §1, §2, §3, §4

[4] = tested on: MDA-MB-231-LM24 (metastatic breast); assay: Cell viability at 1 mM (CellTiter-GLO), MDA-MB-231-LM24; type: cell-based; conditions: Homo sapiens, read-out: Percent Cell Viability of Treated Cell Lines at 1.0 mM, MDA-MB-231-LM24
Description: as §1, §2, §3, §4

[5] = tested on: MDA-MB-231 (breast); assay: Cell viability at 1 mM (CellTiter-GLO), MDA-MB-231; type: cell-based; conditions: Homo sapiens, read-out: Percent Cell Viability of Treated Cell Lines at 1.0 mM, MDA-MB-231
Description: as §1, §2, §3, §4

[6] = tested on: MCF10A ("normal" breast); assay: Cell viability at 1 mM (CellTiter-GLO), MCF10A; type: cell-based; conditions: non-tumorigenic breast epithelial cell line, 1.0 mM
Description: (§5) Normal breast cell line MCF10A was cultured in DMEM/F12 with 5% horse serum, 20 ng/mL EGF, […], 100 ng/mL cholera toxin, 10 μg/mL insulin, and 1% pen/strep.
(§6) Normal breast cells (MCF10A) were plated in 96-well black plates at a density of 20,000 cells per well (based on the NCI recommendation for adherent cells) in 90 μL volume of DMEM/F12 with 2% horse serum, 0.5 μg/mL hydrocortisone, 100 ng/mL cholera toxin, 10 μg/mL insulin, and 1% pen/strep, and incubated at 37° C. overnight. The compounds were diluted in the media specified above, and 10 μL of this solution was added to each well to give a final concentration of 1 mM (1% overall DMSO, N=4 wells).
as §3, §4

[7] = Cell viability at 1 mM (CellTiter-GLO), MCF10A; type: cell-based; conditions: human, MCF10A cells (normal breast); 1.0 mM in DMSO, 48 h, MCF10A; read-out: Percent Cell Viability of Treated Cell Lines at 1.0 mM, MCF10A
Description: as §5, §6, §3, §4

[8] = tested on: MDA-MB-231-LM24; assay: IC50 experiment (CellTiter-GLO), MDA-MB-231-LM24; type: cell-based, human
Description: as §1
(§7) The compound was diluted in RPMI1640 complete media supplemented with 5% FBS and 50 μg/mL of gentamycin, and 100 μL of this solution was added to each well to give a final concentration of 0.00001-1 mM (N=4 wells). DMSO was held constant at 1%, for all dose points.
(§8) 48 hours following treatment, cell proliferation was evaluated using the CellTiter-GLO Luminescent Cell Viability Assay (Promega, Madison, Wis.). Plates were allowed to equilibrate to room temperature for 20 minutes, and 100 μL of CellTiter-GLO reagent was added to all wells. The plates were shaken for 2 minutes and incubated at room temperature for 10 minutes. Luminescence was measured using a Syngergy H1-M microplate reader (BioTek Instruments, Inc.). The IC50 value was determined by Prism GraphPad Software.

[9] = tested on: MCF10A; assay: IC50 experiment (CellTiter-GLO), MCF10A; type: cell-based; conditions: Homo sapiens, MCF-10A; 48 h, 1% DMSO; read-out: IC50 against MCF10A
Description: as §5, §7, §8

[10] = tested on: PC3 (prostate) cancer cell line; assay: Cell viability assay at three concentrations (FIG. 7), PC3; type: cell-based, human; conditions: three different concentrations
[11] = tested on: MDA-MB-231 (breast) cancer cell line; assay: Cell viability assay at three concentrations (FIG. 7), MDA-MB-231; type: cell-based, human; conditions: three different concentrations
[12] = HT-29, 1.0 mM in DMSO, 48 h, HT29
[13] = 1.0 mM in DMSO, 48 h, MDA-MB-231-LM24
[14] = 1.0 mM in DMSO, 48 h, MDA-MB-231

SMILES | viability at 1000 µM ([1]; 1.0 mM in DMSO, PC-3) [%] | viability at 1000 µM [2, 12] [%] | viability at 1000 µM ([3]; 1.0 mM in DMSO) [%] | viability at 1000 µM [4, 13] [%] | viability at 1000 µM [5, 14] [%] | viability at 48 h, 1 mM [7] [%] | other results
CC1=C[C@@H]2[C@H](C(=O)CCC2(C)C)[C@H]2C(=O)[C@@H](C)CC[C@H]12 [Compound 36] | 77 | 64 | 41 | 55 | 53 | – | –
CC1=CC[C@H]2C=C[C@@H]3CC=C(C)C(=O)[C@H]3[C@@H]2C1=O [Compound 14] | 72 | 1 | 46 | 67 | 69 | – | –
CC1=CC[C@@H]2C(C)=C[C@@H]3[C@H](C(=O)C=CC3(C)C)[C@H]2C1=O [Compound 21] | – | – | – | – | – | 4 | viability at 1000 µM [1]: 0%; viability at 1000 µM ([2]; HT-29, 48 h): 0%; viability at 1000 µM [3]: 0%; viability at 1000 µM ([4]; MDA-MB-231-LM24, 48 h): 0%; activity against MCF10A cell line [6]: highly active; viability at 1000 µM ([5]; MDA-MB-231, 48 h): 0%
CC1=CC(=O)[C@@H]2[C@H]3C(=O)C=C(C)C[C@@H]3C=C[C@H]2C1 [Compound 15] | 63 | 66 | 40 | 54 | 11 | – | –
C[C@]12CC(=O)C=C[C@@H]1CC=CC2=O [Compound 28] | 1 | 0 | 0 | 16 | 2 | – | –
O=C1C2O[C@@H]2C[C@H]2C=C[C@@H]3CC4O[C@H]4C(=O)[C@H]3[C@H]12 (some centres unmarked) [Compound 32] | 1 | 1 | 0 | 0 | 25 | 70 | IC50 ([8]; Homo sapiens, MDA-MB-231-LM24, 48 h, 1% DMSO, read-out: IC50 against MDA-MB-231-LM24): 200 µM; selectivity between cancer versus "normal" cell lines ([8]; MCF10A IC50 versus MDA-MB-231-LM24 IC50): 15 times; IC50 [9]: 3100 µM
CC1=CC[C@H]2C=C(C)[C@@H]3CC=C(C)C(=O)[C@H]3[C@@H]2C1=O [Compound 18] | – | – | – | – | – | – | activity in cell viability assay, PC3 [10]: promising activity; activity in cell viability assay, MDA-MB-231 [11]: promising activity
O=C1C=CC[C@H]2CC=C[C@@H]3CC=CC(=O)[C@H]3[C@H]12 [Compound 25] | 0 | 0 | 21 | 1 | 6 | – | –
O=C1CCC[C@H]2CC[C@@H]3CCCC(=O)[C@H]3[C@H]12 [Compound 33] | 77 | 51 | 13 | 60 | 75 | – | –
CC1=CC[C@H]2C(C)=C[C@@H]3CC=CC(=O)[C@@]3(C)[C@@H]2C1=O [Compound 19] | 1 | 1 | 0 | 0 | 0 | – | –
CC1=CC[C@H]2C(C)=CCC3(CCC=CC3=O)[C@@H]2C1=O (some centres unmarked) [Compound 24] | 0 | 0 | 3 | 0 | 1 | 4 | activity in cell viability assay, PC3 [10]: promising activity; activity against MCF10A cell line [6]: highly active; activity in cell viability assay, MDA-MB-231 [11]: promising activity
O=C1C=CC[C@H]2C=C[C@@H]3CC=CC(=O)[C@H]3[C@H]12 [Compound 13] | 0 | 2 | 4 | 2 | 26 | 1 | activity against MCF10A cell line [6]: highly active
C[C@@]12C=CC(=O)C[C@H]1C(=O)C=CC2 [Compound 29] | 2 | 8 | 22 | 26 | 62 | – | –
O=C1C=CC[C@@H]2[C@@H]1[C@@H]1C(=O)C=CC[C@H]1C1O[C@H]12 (some centres unmarked) [Compound 31] | 0 | 0 | 2 | 3 | 26 | 5 | activity against MCF10A cell line [6]: highly active
CC1=CC[C@@H]2C(C)=C[C@@]3(C)CC=CC(=O)[C@@H]3[C@H]2C1=O [Compound 20] | 11 | 31 | 2 | 10 | 43 | – | –

Source: patent US11286226B2, “Polycyclic carbogenic molecules and uses thereof as anti-cancer agents” (Northwestern University, priority 2017, dated 2022)
